Results on 21 compounds are retold here after US20090131431A1, “Pyrazolo[3,4-b]pyridine compounds, and their use as a PDE4 inhibitors” (priority 2005, published 2009).

In the assay the target is T1, PDE4B (human recombinant) (Homo sapiens, UniProt Q07343).
T1 construct: made in house
The assay is described as follows: Inhibition of PDE4B activity: SPA and/or Fluorescence Polarisation (FP) assay. Particulars: one reading (n=1) or average of 2 or more readings, read-out: PDE4B pIC50 (±about 0.5) (converted). It counts as biochemical. In a few lines:
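Human recombinant PDE4B activity measured by SPA with [3H]cAMP at about 10 nM, 1 h at ambient temperature, enzyme set for ≤20% substrate hydrolysis, or by IMAP FP with Fl-cAMP at about 40 nM, 40 min at ambient temperature under linear conditions. Inhibition curves fitted; values reported as pIC50.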
(In general: In fluorescence polarisation assays a small probe gives low polarisation when free and higher when bound to something large.)

Molecules are shown by their SMILES. Counter-ions that a name gives are not always drawn.

T1 sequence (Q07343 1-564 isoform Q07343-2): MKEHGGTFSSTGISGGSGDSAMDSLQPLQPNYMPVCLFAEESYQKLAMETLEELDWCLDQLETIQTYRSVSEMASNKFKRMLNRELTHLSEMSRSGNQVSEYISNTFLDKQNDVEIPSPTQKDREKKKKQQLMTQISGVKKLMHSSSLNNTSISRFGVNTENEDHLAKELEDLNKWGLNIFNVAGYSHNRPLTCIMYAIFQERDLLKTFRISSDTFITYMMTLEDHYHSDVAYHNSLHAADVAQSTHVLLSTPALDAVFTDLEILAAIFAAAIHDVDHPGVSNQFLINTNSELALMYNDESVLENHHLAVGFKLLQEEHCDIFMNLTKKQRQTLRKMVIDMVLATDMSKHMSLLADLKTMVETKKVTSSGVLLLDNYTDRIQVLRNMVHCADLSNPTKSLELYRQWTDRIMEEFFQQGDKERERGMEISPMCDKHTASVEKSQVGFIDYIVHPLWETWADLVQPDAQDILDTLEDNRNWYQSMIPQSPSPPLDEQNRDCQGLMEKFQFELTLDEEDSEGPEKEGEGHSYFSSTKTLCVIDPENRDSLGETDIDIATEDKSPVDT

As to `CCn1ncc2c(NC3CCN(C(N)=O)CC3)c(CNC(=O)c3ccc(NC(C)=O)cc3O)c(C)nc21` [Example 261, 4-({5-[({[4-(acetylamino)-2-hydroxyphenyl]carbonyl}amino)methyl]-1-ethyl-6-methyl-1H-pyrazolo[3,4-b]pyridin-4-yl}amino)-1-piperidinecarboxamide], the IC50 was 0.01 to 0.1 nM.
The same measure for `CCc1nc2c(cnn2CC)c(NC2CCOCC2)c1CNC(=O)c1ccc(F)cc1F` [Example 308, N-{[1,6-diethyl-4-(tetrahydro-2H-pyran-4-ylamino)-1H-pyrazolo[3,4-b]pyridin-5-yl]methyl}-2,4-difluorobenzamide]: 0.126 to 1 nM; for `CCn1ncc2c(NC3CCN(C(N)=O)CC3)c(CNC(=O)c3cccc(NC(C)=O)c3)c(C)nc21` [Example 264, 4-({5-[({[3-(acetylamino)phenyl]carbonyl}amino)methyl]-1-ethyl-6-methyl-1H-pyrazolo[3,4-b]pyridin-4-yl}amino)-1-piperidinecarboxamide]: 0.01 to 0.1 nM; for `CCn1ncc2c(NC3CCOCC3)c(CNS(=O)(=O)c3cccs3)c(C)nc21` [Example 108, N-{[1-ethyl-6-methyl-4-(tetrahydro-2H-pyran-4-ylamino)-1H-pyrazolo[3,4-b]pyridin-5-yl]methyl}-2-thiophenesulfonamide]: 0.126 to 1 nM.
As for `CCc1nc2c(cnn2CC)c(NC2CCOCC2)c1CNC(=O)c1ccc(N2CCOCC2)cc1` [Example 180, N-{[1,6-diethyl-4-(tetrahydro-2H-pyran-4-ylamino)-1H-pyrazolo[3,4-b]pyridin-5-yl]methyl}-4-(4-morpholinyl)benzamide], the IC50 is 0.01 to 0.1 nM.
As to `CCc1nc2c(cnn2CC)c(NC2CCN(C(N)=O)CC2)c1CNC(=O)c1ccc(C(C)(C)C)cc1O` [Example 302, 4-({5-[({[4-(1,1-dimethylethyl)-2-hydroxyphenyl]carbonyl}amino)-methyl]-1,6-diethyl-1H-pyrazolo[3,4-b]pyridin-4-yl}amino)-1-piperidine-carboxamide Formate], the IC50 was 0.01 to 0.1 nM.
The same measure for `CCn1ncc2c(NC3CCOCC3)c(CNC(=O)c3ccc(C(=O)NC)cc3)c(C)nc21` [Example 283, N-{[1-ethyl-6-methyl-4-(tetrahydro-2H-pyran-4-ylamino)-1H-pyrazolo[3,4-b]pyridin-5-yl]methyl}-N′-methyl-1,4-benzenedicarboxamide]: 0.126 to 1 nM.
Regarding `CCn1ncc2c(NC3CCN(C(N)=O)CC3)c(CNC(=O)c3ccccc3O)c(C)nc21` [Example 260, 4-{[1-ethyl-5-({[(2-hydroxyphenyl)carbonyl]amino}methyl)-6-methyl-1H-pyrazolo[3,4-b]pyridin-4-yl]amino}-1-piperidinecarboxamide], the IC50 is 0.01 to 0.1 nM.
The same measure for `CCc1nc2c(cnn2CC)c(NC2CCN(C(N)=O)CC2)c1CNC(=O)c1ccc(C2CCCC2)cc1` [Example 210, 4-{[5-({[(4-cyclopentylphenyl)carbonyl]amino}methyl)-1,6-diethyl-1H-pyrazolo[3,4-b]pyridin-4-yl]amino}-1-piperidinecarboxamide]: 0.01 to 0.1 nM; for `CCc1nc2c(cnn2CC)c(NC2CCN(C(N)=O)CC2)c1CNC(=O)c1ccccc1O` [Example 211, 4-{[1,6-diethyl-5-({[(2-hydroxyphenyl)carbonyl]amino}methyl)-1H-pyrazolo[3,4-b]pyridin-4-yl]amino}-1-piperidinecarboxamide]: 0.01 to 0.1 nM; for `CCc1nc2c(cnn2CC)c(NC2CCOCC2)c1CNC(=O)c1ccc2c(c1)CCC2` [Example 176, N-{[1,6-diethyl-4-(tetrahydro-2H-pyran-4-ylamino)-1H-pyrazolo[3,4-b]pyridin-5-yl]methyl}-2,3-dihydro-1H-indene-5-carboxamide]: 0.01 to 0.1 nM.
As for `CCc1nc2c(cnn2CC)c(NC2CCOCC2)c1CNC(=O)C1CCN(S(C)(=O)=O)CC1` [Example 341, N-{[1,6-diethyl-4-(tetrahydro-2H-pyran-4-ylamino)-1H-pyrazolo[3,4-b]pyridin-5-yl]methyl}-1-(methylsulfonyl)-4-piperidinecarboxamide], the figure is 0.126 to 1 nM; as for `CCn1ncc2c(NC3CCN(C(N)=O)CC3)c(CNC(=O)c3ccc(N4CCCCC4)cc3)c(C)nc21` [Example 269, 4-({1-ethyl-6-methyl-5-[({[4-(1-piperidinyl)phenyl]carbonyl}amino)methyl]-1H-pyrazolo[3,4-b]pyridin-4-yl}amino)-1-piperidinecarboxamide], 0.01 to 0.1 nM; as for `CCc1nc2c(cnn2CC)c(NC2CCN(C(N)=O)CC2)c1CNC(=O)c1ccc(C(C)C)cc1` [Example 208, 4-({1,6-diethyl-5-[({[4-(1-methylethyl)phenyl]carbonyl}amino)methyl]-1H-pyrazolo[3,4-b]pyridin-4-yl}amino)-1-piperidinecarboxamide], 0.01 to 0.1 nM.
As for `CCc1nc2c(cnn2CC)c(NC2CCOCC2)c1CNC(=O)c1ccc(NC(C)=O)cc1` [Example 194, 4-(acetylamino)-N-{[1,6-diethyl-4-(tetrahydro-2H-pyran-4-ylamino)-1H-pyrazolo[3,4-b]pyridin-5-yl]methyl}benzamide], the figure is 0.01 to 0.1 nM; as for `CCc1nc2c(cnn2CC)c(NC2CCN(C(N)=O)CC2)c1CNC(=O)c1ccc2c(=O)[nH][nH]c2c1` [Example 248, N-[(4-{[1-(aminocarbonyl)-4-piperidinyl]amino}-1,6-diethyl-1H-pyrazolo[3,4-b]pyridin-5-yl)methyl]-3-oxo-2,3-dihydro-1H-indazole-6-carboxamide], 0.01 to 0.1 nM.
For the compound `CCc1nc2c(cnn2CC)c(NC2CCOCC2)c1CNC(=O)c1ccc(NC(C)=O)cc1OC` [Example 157, 4-(acetylamino)-N-{[1,6-diethyl-4-(tetrahydro-2H-pyran-4-ylamino)-1H-pyrazolo[3,4-b]pyridin-5-yl]methyl}-2-(methyloxy)benzamide], the IC50 is 0.01 to 0.1 nM.
As for `CCc1nc2c(cnn2CC)c(NC2CCOCC2)c1CNC(=O)c1cc(C(=O)N(C)c2ccccc2)ccc1OC` [Example 182, N˜3˜-{[1,6-diethyl-4-(tetrahydro-2H-pyran-4-ylamino)-1H-pyrazolo[3,4-b]pyridin-5-yl]methyl}-N˜1˜-methyl-4-(methyloxy)-N-˜1˜-phenyl-1,3-benzenedicarboxamide], the figure is 0.01 to 0.1 nM; as for `CCc1nc2c(cnn2CC)c(NC2CCOCC2)c1CN1Cc2ccc(C(F)(F)F)cc2C1=O` [Example 317, 2-{[1,6-diethyl-4-(tetrahydro-2H-pyran-4-ylamino)-1H-pyrazolo[3,4-b]pyridin-5-yl]methyl}-6-(trifluoromethyl)-2,3-dihydro-1H-isoindol-1-one], 0.01 to 0.1 nM; as for `CCc1nc2c(cnn2CC)c(NC2CCN(C(N)=O)CC2)c1CNC(=O)c1ccc(C)cc1O` [Example 245, 4-{[1,6-diethyl-5-({[(2-hydroxy-4-methylphenyl)carbonyl]amino}methyl)-1H-pyrazolo[3,4-b]pyridin-4-yl]amino}-1-piperidinecarboxamide], 0.01 to 0.1 nM.
The same measure for `CCc1nc2c(cnn2CC)c(NC2CCN(C(N)=O)CC2)c1CNC(=O)c1ccccc1F` [Example 246, 4-{[1,6-diethyl-5-({[(2-fluorophenyl)carbonyl]amino}methyl)-1H-pyrazolo[3,4-b]pyridin-4-yl]amino}-1-piperidinecarboxamide]: 0.01 to 0.1 nM.
